Measured values published in the METLIN SMRT retention time set (Domingo-Almenara et al. 2019).

Assay: gradient 5% acetonitrile 3 min, to 50% in 2 min, to 85% in 15 min, held 3 min, 100 µL/min
Conditions: column: Zorbax Extend-C18 2.1 x 50 mm; eluents: water / acetonitrile, 0.1% formic acid
How it was run: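 Pure standards were run in mixtures of ~100 molecules by HPLC coupled to a quadrupole time-of-flight mass spectrometer. The column was a Zorbax Extend-C18 (2.1 × 50 mm, 1.8 μm) at 100 μL/min, with water and acetonitrile each containing 0.1% formic acid, in positive and negative ionization mode. Dead and dwell volumes were 40 μL and 900 μL. Retention time was taken from computationally picked adduct peaks, each manually inspected, with data collected over 3 months.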

| RP-LC retention time [s] | SMILES |
| --- | --- |
| 674 | O=C(Nc1c(-c2ccc(F)cc2)nc2ccccn12)c1cccc(F)c1 |
| 577 | Cc1ccc2[nH]c(=O)c(CCC(=O)NCCc3ccccn3)cc2c1 |
| 968 | O=C(NCCC1=CCCCC1)c1c[nH]c2ncccc12 |
| 607 | COc1cc(C2C(C(=O)N3CCOCC3)=C(C)NC3=C2C(=O)CCC3)cc(Br)c1O (stereo not given) |
| 884 | CC(C)N(Cc1ccccc1)C(=O)c1cc2c(=O)n3ccccc3nc2n1C |
| 999 | COc1ccc(-c2nc(-c3cn(-c4cccc(F)c4)nn3)no2)c(OC)c1 |
| 804 | COc1cccc(-c2ccc(=O)n(CCc3nc(-c4ccc5c(c4)OCO5)no3)n2)c1 |
| 847 | O=C(NC1CCCCC1)C1CCN(Cc2cc3ccccc3n2Cc2ccccc2Cl)CC1 |
| 775 | C[C@@H]1COCCN1c1cc(C2(S(C)(=O)=O)CC2)nc(-c2cccc3[nH]ccc23)n1 |
| 653 | Cc1ncsc1CN1CCC(Oc2ccccc2-c2nc(C3CC3)no2)C1 (stereo not given) |
| 661 | CCn1nc(C)c(CCNC(=O)c2ccc3c(c2)N(C)C(=O)C2CCCCN32)c1C (stereo not given) |
| 990 | Cc1ccc(Nc2c(-c3ccc(N(C)C)cc3)nc3cnccn23)c(Br)c1 |
| 821 | CCN(CC)C(=O)C1CCN(S(C)(=O)=O)c2cc(Cl)ccc2O1 (stereo not given) |
| 879 | COc1cccc(-n2c(N3CCCC(C(=O)NCCc4cccs4)C3)nc3ccsc3c2=O)c1 (stereo not given) |
| 768 | CCN1CCCn2cc(S(=O)(=O)Nc3cccc(C)c3C)cc2C1=O |
| 708 | N#CC1(C(=O)NCCc2cccs2)CC1 |
| 762 | Cc1cccc(CNC(=O)C2CCN(C(=O)C3Sc4ccccc4NC3=O)CC2)c1 (stereo not given) |
| 1260 | O=C(Nc1nc(-c2ccccc2)cs1)c1sc2cc([N+](=O)[O-])ccc2c1Cl |
| 642 | Cc1sc2ccn(CC(C)C)c(=O)c2c1C(=O)N1CCN(C2CCCCC2)CC1 |
| 894 | O=C(Cn1nc(N2CCOCC2)c2ccccc2c1=O)Nc1cccc(C(F)(F)F)c1 |
| 628 | COc1ccc(S(=O)(=O)N2CCc3nc(CNC(=O)C4CCC4)n(C)c3C2)cc1 |

| RP-LC retention time [s] | SMILES |
| --- | --- |
| 916 | CCCn1ccc2sc(C)c(C(=O)N3CCN(c4ccccc4F)CC3)c2c1=O |
| 1180 | Cc1ccc(-c2csc(NC(=O)c3cccs3)n2)cc1C |
| 782 | O=C(COc1ccccc1)N1CCC(CNS(=O)(=O)Cc2cccc(F)c2)CC1 |
| 845 | Cc1nc(CC(=O)Nc2ccc(F)cc2Cl)cs1 |
| 739 | Cc1ccc(F)cc1NS(=O)(=O)c1cc(-c2[nH]ncc2C(=O)N2CCCC2)oc1C |
| 976 | COc1ccc(NC(=O)C2=Cc3cc(OC)ccc3OC=C2)cc1 |
| 581 | CN1CCN(CCCNC(=O)C2CCc3sc(C(=O)N4CCCCCC4)cc3C2)CC1 (stereo not given) |
| 834 | COc1ccc(C(=O)Nc2nnc(SCc3nnc(-c4ccc5c(c4)OCO5)o3)s2)cc1OC |
| 879 | O=C(c1ccc(-c2noc(C3CCC3)n2)cc1)N1CCCC1 |
| 775 | COc1cccc(-n2ccn3cc(-c4ccc5c(c4)OCO5)nc3c2=O)c1 |
| 735 | CCc1ccccc1N(C)C(=O)Cn1ccc2c(=O)n(C)c(=O)n(C)c21 |
| 877 | CCCCN1C(=O)CN(C2CCCCC2)C(=O)C1c1ccc(OC)c(OC)c1 (stereo not given) |
| 1030 | Cc1ccc(-n2ccc(=O)c(-c3nc(-c4ccc(Br)cc4)no3)n2)cc1 |
| 886 | CCc1nn2c(CNS(=O)(=O)c3ccc(OC)cc3)c(-c3ccccc3)nc2s1 |
| 625 | CCOC(=O)C1=C(CN2CCN(c3ccccn3)CC2)NC(=O)NC1c1ccc(F)cc1 (stereo not given) |
| 721 | CC(C)CNC(=O)c1ccc(CN2CCN(Cc3ccccc3)C(=O)C2=O)cc1 |
| 789 | CCc1cc(C2CCCN2C(=O)NCCc2ccccc2)on1 (stereo not given) |
| 955 | CC(C)CCNC(=O)C1CCCN(c2nc3ccsc3c(=O)n2Cc2ccccc2)C1 (stereo not given) |
| 581 | O=C(NCCN1CCCCC1)C1CCN(c2nc3cccnc3s2)CC1 |
| 771 | Cc1ccc(-c2nc(C)c3c(n2)N(Cc2ccccn2)C(=O)CC3)cc1 |
| 613 | COc1ccc(-c2ccc(N3CCCC(C(=O)NCc4cccs4)C3)nn2)cc1 (stereo not given) |

| RP-LC retention time [s] | SMILES |
| --- | --- |
| 871 | COc1ccc(NC(=O)C2CCN(S(=O)(=O)c3cc(-c4noc(C)n4)cs3)CC2)cc1 |
| 710 | CSc1nnc(-c2nn(C)c3c2CN(C(=O)c2ccccc2Cl)CC3)n1C |
| 814 | Cc1sc(NC(=O)c2ccco2)nc1-c1ccc2c(c1)NC(=O)C(C)O2 (stereo not given) |
| 981 | CCOc1ccccc1-c1csc(NC(=O)c2sc(C)nc2C)n1 |
| 935 | COc1ccc(-c2nn3c(-c4ccccc4F)nnc3s2)cc1 |
| 622 | O=C(N[C@H]1C[C@@H]2C[C@H]1N(C(=O)c1ccccn1)C2)c1ccccc1 |
| 715 | COCc1nn(CC2CC2)c2c1CN(C(=O)c1ccc(OC)cc1)CC2 |
| 901 | COc1cc(-c2nc(C3CC(=O)N(c4ccc(F)cc4)C3)no2)cc(OC)c1OC (stereo not given) |
| 598 | Cc1c(C(=O)NCCN2CCOCC2)sc2ncn(CC(=O)N3CCCCC3C)c(=O)c12 (stereo not given) |
| 995 | COc1ccc(/C=C/c2nc(-c3ccc4oc(C)nc4c3)no2)cc1OC |
| 586 | CC1CCCCN1CCCNC(=O)CCC(=O)N1CCc2c(c(C(=O)N3CCCC3)nn2C)C1 (stereo not given) |
| 890 | CCc1noc(-c2cc(=O)n(CC(=O)NCc3ccccc3F)c3ccccc23)n1 |
| 949 | Cc1c(Cl)cccc1NC(=O)CCc1nc(CSc2nnc(-c3ccccc3)o2)no1 |
| 610 | O=C(c1ccc2c(c1)OCO2)N1CC(c2noc(C3CCCN3CC3CC3)n2)C1 (stereo not given) |
| 990 | CCOc1ccccc1-c1noc(Cn2cnc3c(cnn3-c3ccccc3)c2=O)n1 |
| 654 | COC(=O)c1cnn(-c2ccc(C(=O)N3CCCC3)cc2)c1N |
| 559 | CC(C)C(=O)N1CCC2(CC1)CCC(O)(CN(C)C)CC2 |
| 680 | O=C(c1ccc(OCCCc2cnc[nH]2)cc1)C1CC1 |
| 646 | O=C(NC1CCCCCCC1)C1CCCN(C(=O)c2cc(-c3ccncc3)n[nH]2)C1 (stereo not given) |
| 884 | COCc1cc(=O)n(CC(=O)Nc2cccc(Cl)c2)c(N2CCOCC2)n1 |
| 1180 | Cc1ccc(C)c(N2CCN(C(=O)c3ccc4c(c3)N(C)C(=O)C3CCCCN43)CC2)c1 (stereo not given) |

| RP-LC retention time [s] | SMILES |
| --- | --- |
| 858 | Cc1ccc(NC(=O)NCCc2cn(CC(C)C)c3ncccc23)cc1C |
| 1000 | CN1C(=O)c2cc(S(=O)(=O)NC3CCCCCC3)ccc2Oc2cccnc21 |
| 657 | O=C1CCc2cc(NC(=O)c3ccc(F)c(F)c3)ccc2N1 |
| 933 | O=S(=O)(c1ccc(-c2nnc(C3CCCC3)o2)o1)N1CCCC1 |
| 859 | COc1ccc(OCCN2CC(=O)N(c3ccc(C)c(C)c3)[C@@H]3CS(=O)(=O)C[C@@H]32)cc1 |
| 1090 | c1ccc2c(c1)OCC(c1nc(-c3ccc(-n4cccn4)nc3)no1)O2 (stereo not given) |
| 969 | CCn1cc(S(=O)(=O)N2CCN(c3ccccc3)CC2)c2cccnc21 |
| 734 | Cc1ccc(C)c(NC(=O)Cn2c(C(C)C)nc3c(c2=O)CCN(Cc2ccccc2)C3)c1 |
| 854 | CCOc1ccccc1CNC(=O)CN1CCN(Cc2ccccc2F)C1=O |
| 1090 | CCN(CC)S(=O)(=O)c1cc(-c2nnc(-c3ccccc3OC)o2)ccc1Cl |
| 1150 | C[C@H](NC(=O)c1cc2ccccc2[nH]1)C(=O)NCCc1c[nH]c2ccccc12 |
| 707 | CSc1ccccc1NC(=O)C(C)Cn1nc(-c2ccco2)ccc1=O (stereo not given) |
| 688 | CC(C)c1nncn1C1CCN(S(=O)(=O)Cc2ccccc2F)CC1 |
| 904 | O=c1ccc(-c2nc(-c3ccncc3)no2)nn1Cc1ccc(F)cc1Cl |
| 756 | Cc1ccc(NC(=O)Cn2c(C)nc3onc(C)c3c2=O)cc1C |
| 596 | Oc1ccc(-c2nc3ccccn3c2Nc2ccc3c(c2)OCCO3)cc1 |
| 1040 | COc1ccc(-c2noc(Cc3nnc(-c4cc(F)cc(F)c4)o3)n2)cc1 |
| 780 | O=C(Nc1ccc(-c2cn3c(C(=O)N4CCCC4)csc3n2)cc1)c1ccccc1 |
| 737 | CCn1c(=O)sc2cc(S(=O)(=O)N3CCC(C(=O)NC4CC4)CC3)ccc21 |
| 844 | CCOc1ccc(NC(=O)CSC2=C(C#N)C(c3cccs3)CC(=O)N2)cc1 (stereo not given) |
| 1030 | Cc1ccccc1OCC(=O)N1CCCC(COCc2ccccc2)C1 (stereo not given) |

| SMILES | RP-LC retention time [s] |
| --- | --- |
| CCC1CN1P1(=O)OCC(C)([N+](=O)[O-])CO1 (stereo not given) | 721 |
| CC(C)Oc1cccnc1N(C)C1CCN(Cc2ccccc2)CC1 | 627 |
| Cc1ccc(C)c(Cn2nnc(C(=O)O)c2C)c1 | 783 |
| COc1ccc2c(c1)C1(CCN(C(=O)c3ccccc3Br)C1)C(=O)N2 (stereo not given) | 750 |
| COc1ccc2c(c1)C1(CCN(C(=O)c3ccc(F)cc3)C1)C(=O)N2C (stereo not given) | 759 |
| CN1C2CCC1[C@@H](COC(=O)c1ccccc1)[C@@H](O)C2 (stereo not given in full) | 636 |
